We go through four molecules from ChEMBL document CHEMBL1148519, “Antitumor activity of tetrahydroisoquinoline analogues 3-epi-jorumycin and 3-epi-renieramycin G” (2006).

For one test, the system named is A549. As to the kind of experiment: Antiproliferative activity against human A549 cell line. The class given is functional.
Another test deals with HCT-116. Nature of the test: Antiproliferative activity against human HCT116 cell line. It counts as functional.

In general, GI50 refers to the concentration that inhibits growth by half. Higher therefore signals lower sensitivity of the cells. For the molecule `COC1=C(C)C(=O)C2=C(C1=O)[C@@H]1[C@H]3CC4=C(C(=O)C(OC)=C(C)C4=O)[C@H](COC(C)=O)N3[C@@H](O)[C@H](C2)N1C`, the GI50 in the test with A549 came to 4640 nM; with HCT-116, 610 nM.

Regarding `COC1=C(C)C(=O)C2=C(C1=O)[C@@H]1[C@@H]3CC4=C(C(=O)C(OC)=C(C)C4=O)[C@H](COC(C)=O)N3[C@@H](O)[C@H](C2)N1C`, the values for the GI50 in the test with A549 and in the test with HCT-116 were 19.2 nM and 1.9 nM, respectively.

As to `C/C=C(/C)C(=O)OC[C@H]1C2=C(C[C@@H]3[C@H]4C5=C(C[C@@H](C(=O)N31)N4C)C(=O)C(C)=C(OC)C5=O)C(=O)C(C)=C(OC)C2=O` [3-EPI-RENIERAMYCIN G], the GI50 is 10100 nM with A549 and 1400 nM in the test on HCT-116.

Consider `C/C=C(/C)C(=O)OC[C@H]1C2=C(C[C@H]3[C@H]4C5=C(C[C@@H](C(=O)N13)N4C)C(=O)C(C)=C(OC)C5=O)C(=O)C(C)=C(OC)C2=O` [(-)-RENIERAMYCIN G], for which the GI50 in the test with A549 was 12900 nM; with HCT-116, 3870 nM.
